Converted amounts (≈) assume the structure as drawn.
What was measured:
[1] = target: 3',5'-cyclic-AMP phosphodiesterase 4B (Homo sapiens, UniProt Q07343); experiment: Inhibition of human recombinant PDE4B2 assessed as […] in cAMP level incubated for 2 hrs by LANCE Ultra cAMP TR-FRET assay
[2] = Antagonist activity at muscarinic M3 receptor in guinea pig trachea assessed as inhibition of carbachol-induced contraction; assay type: tissue-based, Cavia porcellus
[3] = Antiinflammatory activity in human PBMCs assessed as inhibition of LPS-induced TNF-alpha release measured after 18 hrs by ELISA; assay type: functional, tissue-based, PBMC; details: for IC50: Homo sapiens, PBMC, 18 h; for pIC50: pbmc
Cavia porcellus [4] = experiment: Bronchodilatory activity in IT dosed Dunkin Hartley guinea pig model assessed as inhibition of acetylcholine-induced bronchoconstriction measured after 1 hr by Konzett-Roessler methodology; assay type: functional
[5] = target: T1, Muscarinic acetylcholine receptor M3 (Homo sapiens, UniProt P20309); experiment: Displacement of [3H]-N-methyl Scopolamine Chloride from human M3 receptor membranes incubated for 2 hrs by scintillation counting analysis; assay type: cell membranes, Cell membrane
Target sequence in this assay (P20309 whole entry): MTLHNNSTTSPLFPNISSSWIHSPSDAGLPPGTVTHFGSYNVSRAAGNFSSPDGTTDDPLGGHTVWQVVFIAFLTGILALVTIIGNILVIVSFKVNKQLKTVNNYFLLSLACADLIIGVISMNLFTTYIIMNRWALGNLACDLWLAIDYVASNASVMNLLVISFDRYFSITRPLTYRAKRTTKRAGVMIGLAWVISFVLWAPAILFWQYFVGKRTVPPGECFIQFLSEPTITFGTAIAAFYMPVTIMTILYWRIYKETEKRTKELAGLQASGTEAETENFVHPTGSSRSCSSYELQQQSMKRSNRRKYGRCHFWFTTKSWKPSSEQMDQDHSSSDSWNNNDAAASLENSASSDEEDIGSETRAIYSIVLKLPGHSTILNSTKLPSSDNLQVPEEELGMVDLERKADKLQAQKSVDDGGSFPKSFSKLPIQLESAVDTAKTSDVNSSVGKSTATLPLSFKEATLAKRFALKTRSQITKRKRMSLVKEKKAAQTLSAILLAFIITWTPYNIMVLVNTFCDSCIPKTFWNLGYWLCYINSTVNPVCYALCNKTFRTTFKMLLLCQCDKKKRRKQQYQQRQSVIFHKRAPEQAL

Cavia porcellus [6] = experiment: Bronchodilatory activity in Dunkin Hartley guinea pig model assessed as inhibition of acetylcholine-induced bronchoconstriction at 3 nmol/kg, IT measured after 1 hr by Konzett-Roessler methodology relative to control; assay type: functional; details: for inhibition in vivo at 0.003 µmol/kg: Cavia porcellus, Dunkin Hartley
Cavia porcellus [7] = experiment: Bronchodilatory activity in Dunkin Hartley guinea pig model assessed as inhibition of acetylcholine-induced bronchoconstriction at 10 nmol/kg, IT measured after 1 hr by Konzett-Roessler methodology relative to control; assay type: functional
Cavia porcellus [8] = experiment: Bronchodilatory activity in Dunkin Hartley guinea pig model assessed as inhibition of acetylcholine-induced bronchoconstriction at 3 nmol/kg, IT measured after 16 hrs by Konzett-Roessler methodology relative to control; assay type: functional; details: for inhibition (INH): 0.003 umol/kg
[9] = Kinetic solubility of compound in PBS at pH 7.4 […] incubated for 2 hrs by LC-UV and LC-MS analysis; assay type: physicochemical; details: read-out: Kinetic_solubility
[10] = target: T1, Muscarinic acetylcholine receptor M3; experiment: Binding affinity to human M3 receptor membranes assessed as association half life by liquid scintillation counting analysis; details: Cell membrane, filed as antagonist
Target sequence in this assay (P20309 whole entry, looked up): as the sequence (P20309 whole entry) above

[11] = target: T1, Muscarinic acetylcholine receptor M3; experiment: Binding affinity to human M3 receptor membranes assessed as dissociation half life by liquid scintillation counting analysis; details: Cell membrane, filed as antagonist
Target sequence in this assay (P20309 whole entry, looked up): as the sequence (P20309 whole entry) above

[12] = target: Muscarinic acetylcholine receptor M3 (Rattus norvegicus, UniProt P08483); experiment: Antagonist activity at muscarinic M3 receptor in rat trachea assessed as inhibition of carbachol-induced contraction; assay type: functional, tissue-based
[13] = Stability in rat plasma assessed as half life at 5 uM measured up to 180 mins by HPLC-MS/MS analysis; assay type: ADME, cell-free
Rattus norvegicus [14] = experiment: Antiinflammatory activity in ovalbumin induced Brown Norway rat airway inflammation model assessed as reduction in eosinophil counts in bronchoalveolar lavage at 1 umol/kg, INH for 3 consecutive days and measured after 24 hrs post last dose; assay type: functional; set-up: scale not given: the % may be the effect or the level left; details: dose 1 µmol/kg; time 3 day
[15] = target: T2, Muscarinic acetylcholine receptor M2 (Homo sapiens, UniProt P08172); experiment: Displacement of [3H]-N-methyl Scopolamine Chloride from human M2 receptor membranes incubated for 2 hrs by scintillation counting analysis; assay type: cell membranes, Cell membrane
T2 sequence (P08172 whole entry): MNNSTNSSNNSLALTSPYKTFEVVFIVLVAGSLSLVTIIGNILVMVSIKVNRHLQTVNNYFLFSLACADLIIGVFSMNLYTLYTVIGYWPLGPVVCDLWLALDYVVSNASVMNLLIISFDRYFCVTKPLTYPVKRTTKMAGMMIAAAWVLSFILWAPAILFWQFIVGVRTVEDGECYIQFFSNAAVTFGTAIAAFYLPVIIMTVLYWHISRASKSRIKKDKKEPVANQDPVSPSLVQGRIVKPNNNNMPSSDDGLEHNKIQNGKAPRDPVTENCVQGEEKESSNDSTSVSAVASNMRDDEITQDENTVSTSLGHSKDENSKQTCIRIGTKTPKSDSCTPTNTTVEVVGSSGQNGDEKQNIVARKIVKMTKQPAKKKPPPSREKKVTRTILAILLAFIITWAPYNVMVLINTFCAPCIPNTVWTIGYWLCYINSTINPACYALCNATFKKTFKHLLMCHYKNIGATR

[16] = Microsomal stability in human liver microsomes assessed as intrinsic clearance at 1 uM measured up to 60 mins by HPLC-MS/MS analysis; assay type: ADME, Microsome; details: read-out: CLH
[17] = Permeability across apical to basolateral side in human Caco2 cells at 10 uM measured after 1 hr by LC-MS/MS analysis; assay type: ADME, cell-based; details: Caco-2
[18] = Plasma protein binding in rat assessed as bound fraction at 0.5 to 2 uM measured after 30 mins by HPLC-MS/MS analysis; assay type: ADME, cell-free; details: dose 0.5-2 µM, read-out: PPB (converted)
[19] = Plasma protein binding in human assessed as bound fraction at 0.5 to 2 uM measured after 30 mins by HPLC-MS/MS analysis; assay type: ADME, cell-free; details: dose 0.5-2 µM, read-out: PPB (converted)
Rattus norvegicus [20] = experiment: Antiinflammatory activity in ovalbumin induced Brown Norway rat airway inflammation model assessed as reduction in eosinophil counts in bronchoalveolar lavage administered via inhalation for 3 consecutive days and measured after 24 hrs post last dose; assay type: functional; details: inhaled or nasal
[21] = Toxicity in ferret assessed as nausea-like score at 10 umol/kg, IT observed for 4 hrs (Rvb= 12.83+/-5.10); set-up: species or system Mustela putorius furo; details: in vivo, inhaled_or_intranasal, dose 10 µmol/kg
[22] = Toxicity in ferret assessed as nausea-like score at 1 umol/kg, IT observed for 4 hrs (Rvb= 12.83+/-5.10); set-up: species or system Mustela putorius furo; details: in vivo, inhaled_or_intranasal, dose 1 µmol/kg
[23] = Toxicity in ferret assessed as induction of emesis at 1 umol/kg, IT measured for 4 hrs; set-up: species or system Mustela putorius furo; details: in vivo, inhaled_or_intranasal, dose 1 µmol/kg
[24] = Microsomal stability in rat liver microsomes assessed as intrinsic clearance at 1 uM measured up to 60 mins by HPLC-MS/MS analysis; assay type: ADME, Microsome; details: read-out: CLH
[25] = Stability in human plasma assessed as half life at 5 uM measured up to 180 mins by HPLC-MS/MS analysis; assay type: ADME, cell-free
[26] = Toxicity in ferret assessed as induction of emesis at 10 umol/kg, IT measured for 4 hrs; set-up: species or system Mustela putorius furo; details: in vivo, inhaled_or_intranasal, dose 10 µmol/kg
Cavia porcellus [27] = experiment: Bronchodilatory activity in Dunkin Hartley guinea pig model assessed as inhibition of acetylcholine-induced bronchoconstriction at 30 nmol/kg, IT measured after 16 hrs by Konzett-Roessler methodology relative to control; assay type: functional
Cavia porcellus [28] = experiment: Bronchodilatory activity in Dunkin Hartley guinea pig model assessed as inhibition of acetylcholine-induced bronchoconstriction at 30 nmol/kg, IT measured after 1 hrs by Konzett-Roessler methodology relative to control; assay type: functional
[29] = Cavia porcellus, Dunkin Hartley, 1 h, read-out: ED50
[30] = Cavia porcellus, Dunkin Hartley, read-out: ED50

3',5'-cyclic-AMP phosphodiesterase 4B, sequence (Q07343 whole entry): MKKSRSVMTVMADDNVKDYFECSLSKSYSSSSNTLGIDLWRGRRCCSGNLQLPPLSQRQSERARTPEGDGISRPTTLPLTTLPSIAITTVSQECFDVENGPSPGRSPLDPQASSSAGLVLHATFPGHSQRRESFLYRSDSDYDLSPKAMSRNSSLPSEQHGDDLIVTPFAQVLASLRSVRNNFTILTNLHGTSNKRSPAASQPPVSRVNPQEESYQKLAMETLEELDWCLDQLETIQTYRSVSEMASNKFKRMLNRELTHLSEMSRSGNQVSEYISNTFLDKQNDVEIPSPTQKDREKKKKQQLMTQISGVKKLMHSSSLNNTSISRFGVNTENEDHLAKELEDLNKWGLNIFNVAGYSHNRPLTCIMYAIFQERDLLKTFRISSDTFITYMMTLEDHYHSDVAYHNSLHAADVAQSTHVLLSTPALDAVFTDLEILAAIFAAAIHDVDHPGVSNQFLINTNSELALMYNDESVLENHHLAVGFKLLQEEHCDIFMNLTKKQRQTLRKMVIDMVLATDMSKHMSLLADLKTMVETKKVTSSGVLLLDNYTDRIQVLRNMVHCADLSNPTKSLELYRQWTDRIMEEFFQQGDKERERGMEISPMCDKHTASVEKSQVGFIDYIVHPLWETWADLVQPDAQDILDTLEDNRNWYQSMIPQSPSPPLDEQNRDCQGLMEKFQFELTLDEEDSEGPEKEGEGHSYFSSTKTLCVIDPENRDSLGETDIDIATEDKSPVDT
Muscarinic acetylcholine receptor M3 (Rattus norvegicus, UniProt P08483), sequence (P08483 whole entry): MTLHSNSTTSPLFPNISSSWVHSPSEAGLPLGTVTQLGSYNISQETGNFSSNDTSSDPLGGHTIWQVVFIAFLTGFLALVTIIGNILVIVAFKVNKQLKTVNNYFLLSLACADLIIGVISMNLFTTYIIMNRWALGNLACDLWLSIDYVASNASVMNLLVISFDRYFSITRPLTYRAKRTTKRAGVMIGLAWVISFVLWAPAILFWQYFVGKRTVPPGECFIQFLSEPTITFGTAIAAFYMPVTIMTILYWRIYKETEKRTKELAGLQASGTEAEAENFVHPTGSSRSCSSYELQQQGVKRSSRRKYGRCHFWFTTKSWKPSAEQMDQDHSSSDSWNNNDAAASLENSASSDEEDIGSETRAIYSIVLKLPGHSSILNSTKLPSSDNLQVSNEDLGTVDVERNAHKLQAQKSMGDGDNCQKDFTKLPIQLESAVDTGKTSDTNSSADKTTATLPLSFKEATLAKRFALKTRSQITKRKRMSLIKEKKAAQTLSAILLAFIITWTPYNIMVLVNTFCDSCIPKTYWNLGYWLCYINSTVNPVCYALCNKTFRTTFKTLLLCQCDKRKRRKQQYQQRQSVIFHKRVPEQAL

## COc1ccc([C@H](Cc2c(Cl)c[n+]([O-])cc2Cl)OC(=O)c2ccc(CN(C(=O)O[C@H]3CN4CCC3CC4)c3ccccc3)s2)cc1OC
[1]
  IC50: 1 nM
[2]
  pIC50: 8.4
[3]
  IC50: 0.794 nM
Cavia porcellus [4]; [29]
  ED50: 0.0016 µmol/kg
[5]
  Ki: 0.1 nM
Cavia porcellus [6]; 1 h
  inhibition in vivo at 0.003 µmol/kg: 82%

## COc1ccc([C@H](Cc2c(Cl)c[n+]([O-])cc2Cl)OC(=O)c2ccc(CN(C(=O)O[C@H]3CN4CCC3CC4)c3ccccn3)s2)cc1OC
[1]
  IC50: 0.631 nM
[2]
  pIC50: 8.7
Cavia porcellus [7]
  inhibition in vivo at 0.01 µmol/kg: 78%
[3]
  IC50: 0.501 nM
[5]
  Ki: 0.501 nM

## COc1ccc([C@H](Cc2c(Cl)c[n+]([O-])cc2Cl)OC(=O)c2ccc(CN(C(=O)O[C@H]3CN4CCC3CC4)c3ccccc3F)s2)cc1OC
[1]
  IC50: 0.501 nM
[2]
  pIC50: 9.1
Cavia porcellus [8]; Cavia porcellus, Dunkin Hartley
  inhibition in vivo at 0.003 µmol/kg: 38%
[9]
  solubility kinetic at 2 h: 134 µM (≈ 97.9 µg/mL)
[3]
  IC50: 1.26 nM
Cavia porcellus [4]; [29]
  ED50: 0.0005 µmol/kg
[5]
  Ki: 0.126 nM
Cavia porcellus [6]; 1 h
  inhibition in vivo at 0.003 µmol/kg: 97%

## C[N+]1(C)[C@@H]2C[C@H](OC(=O)C(O)(c3cccs3)c3cccs3)C[C@H]1[C@@H]1O[C@@H]12
[10]
  T1/2: 10.3 h
[11]
  T1/2: 22.5 h

## COc1ccc([C@H](Cc2c(Cl)c[n+]([O-])cc2Cl)OC(=O)c2ccc(CNC(C(=O)O[C@H]3CN4CCC3CC4)c3ccccc3)s2)cc1OC (stereo in doubt; 91a)
[1]
  IC50: 1.58 nM
[2]
  pIC50: 8.9
Cavia porcellus [8]
  inhibition (INH): 32%
[12]
  IC50: 2 nM
[3]
  IC50: 3.16 nM
Cavia porcellus [4]; 1 h
  ED50: 0.0016 µmol/kg
[5]
  Ki: 0.126 nM
Cavia porcellus [6]; 1 h
  inhibition in vivo at 0.003 µmol/kg: 73%

## COc1ccc([C@H](Cc2c(Cl)c[n+]([O-])cc2Cl)OC(=O)c2ccc(CNC(C(=O)O[C@H]3CN4CCC3CC4)c3ccccc3)s2)cc1OC (stereo in doubt; 92a) [listing 1 of 2 here]
[1]
  pIC50: 8.8
[13]
  half-life at 5 µM: 9 min
Rattus norvegicus [14]
  Activity: 54%
[15]
  Ki: 0.2 nM
[2]
  pIC50: 9
[16]
  microsomal CLint at 1 µM: 213 µL/min/mg
[17]
  Papp A→B at 1 h, 10 µM: 16 nm/s
[18]
  fraction unbound at 0.5 h, up to 2 µM: 0.086
[19]
  fraction unbound at 0.5 h, up to 2 µM: 0.07
Cavia porcellus [8]
  inhibition (INH): 67%
[12]
  IC50: 1 nM
Rattus norvegicus [20]
  ED50: 0.03 µmol/kg
[21]
  Activity: 12.83
[22]
  Activity: 30.67
[9]
  solubility kinetic at 2 h: 145 µM (≈ 105 µg/mL)
[3]
  pIC50: 8.8
[23]
  Activity: Non-Toxic
Cavia porcellus [4]; 1 h
  ED50: 0.0007 µmol/kg
[24]
  microsomal CLint at 1 µM: 126 µL/min/mg
[25]
  half-life at 5 µM: 0.183 h
[5]
  Ki: 0.0631 nM
[26]
  Activity: Non-Toxic
Cavia porcellus [6]; 0.003 umol/kg, 1 h
  inhibition (INH): 74%

## COc1ccc([C@H](Cc2c(Cl)c[n+]([O-])cc2Cl)OC(=O)c2ccc(CNC(C(=O)O[C@H]3CN4CCC3CC4)c3ccccc3)s2)cc1OC (stereo in doubt; 92a) [listing 2 of 2 here]
[10]
  T1/2: 13.7 h
[11]
  T1/2: 29.5 h

## COc1ccc([C@H](Cc2c(Cl)c[n+]([O-])cc2Cl)OC(=O)c2ccc(CNC(C(=O)OC3CCN(C)CC3)c3ccccc3)s2)cc1OC (stereo in doubt; 92e)
Cavia porcellus [27]
  inhibition in vivo at 0.03 µmol/kg: 2%
[1]
  IC50: 0.501 nM
[12]
  IC50: 1.58 nM
Cavia porcellus [28]
  inhibition in vivo at 0.03 µmol/kg: 75%
[3]
  pIC50: 8.6
Cavia porcellus [4]; [30]
  ED50: 0.0041 µmol/kg
[5]
  Ki: 0.251 nM

## COc1ccc([C@H](Cc2c(Cl)c[n+]([O-])cc2Cl)OC(=O)c2ccc(CNC(C(=O)O[C@@H]3CCN(C)C3)c3ccccc3)s2)cc1OC (stereo in doubt; 92f)
Cavia porcellus [27]
  inhibition in vivo at 0.03 µmol/kg: 41%
[1]
  IC50: 1.58 nM
[12]
  IC50: 1.58 nM
[3]
  pIC50: 8.5
Cavia porcellus [4]; [30]
  ED50: 0.001 µmol/kg
[5]
  Ki: 0.126 nM
Cavia porcellus [6]
  inhibition in vivo at 0.003 µmol/kg: 96%

## O=C(Nc1c(Cl)cncc1Cl)c1ccc(OC(F)F)c(OCC2CC2)c1 [ROFLUMILAST]
[21]
  Activity: 72.5
[26]
  Activity: Toxic

From ChEMBL document CHEMBL5034004, “Discovery of M3 Antagonist-PDE4 Inhibitor Dual Pharmacology Molecules for the Treatment of Chronic Obstructive Pulmonary Disease” (J Med Chem, 2021)
